# Target: Ustilago maydis K53R ACC (Mycosarcoma maydis, UniProt A0A0D1DYD5, K53R)
# Test: biochemical
# Assay type: biochemical
smiles,measurement,value
"CC[N+](CC)(CCCCN(Cc1cc(C)cc(C)c1)Cc1cc(C)cc(C)c1)Cc1cc(C)cc(C)c1.[Br-] [Compound 28, Diethyl(3,5-dimethylbenzyl)[bis-(3,5-dimethylbenzyl)aminobutyl]ammonium formate]",IC50,52 µM

# Source: US20080200461A1, “MODULATORS OF ACETYL-COENZYME A CARBOXYLASE AND METHODS OF USE THEREOF” (Cropsolution, Inc., priority 2007, published 2008)
